From patent US11419918B2, “Treatment of biliary cirrhosis based on oxyntomodulin analogue GLP-1R/GCGR dual-target agonist peptide” (Shenzhen Turier Biotech Co., Ltd., priority 2017, dated 2022)
Numbered stars: 1 amine (or outer) side, 2 acyl side, 3 side chain; on linkers, the order of the positions; unused ones are H or OH. Square brackets hold non-standard residues; d marks the D form. Primed or numbered codes have the meaning given here. Side chains are listed from the residue outwards. Ends that are not written are not given here. * marks the point of attachment. C18 diacid = O=C(O)CCCCCCCCCCCCCCCCC(=O)*; γGlu = O=C(O)[C@H](CCC(=O)[*:2])N[*:1]; Palmitoyl = CCCCCCCCCCCCCCCC(=O)*; Nle = CCCC[C@H](N)C(=O)O; PEG2′ = not defined here; Aib = CC(C)(N)C(=O)O

How the values were obtained:
[1] = test system: human hepatic stellate cells (LX-2); experiment: In vitro inhibition of hepatic fibrosis: expression of activation marker α-SMA in LX-2 cells (Western Blot, β-actin internal reference); assay type: cell-based; details: 10.0 μM, 48 hours, negative control (PBS) = 100%
How it was run: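 LX-2 cells grown in DMEM high glucose + 10% FBS to ~70% confluence, then exposed to polypeptides (in PBS) at different doses for 48 h; PBS-only negative control. α-SMA quantified by Western blot densitometry normalised to β-actin, expressed relative to control set at 100%.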

[2] = test system: BDL-induced cholestasis hepatic fibrosis in rats; experiment: Bile duct ligation (BDL)-induced hepatic fibrosis in rats (biliary cirrhosis rat model); assay type: in vivo, SD rats; details: 50 μg/kg subcutaneous every two days, 14 days
Method: 1. Experimental Drugs: polypeptide compounds 3, 6, 7, 10, 17, 20, 37, 38, 39, 40, 44, 46, Obeticholic Acid (Abbr. OCA, CAS:459789-99-2, purchased from Zhejiang Warrant Pharmaceutical Co., Ltd.) and Liraglutide. Saving condition was −20° C.
128 male SD rats with body weight of 200-230 g were randomly divided into sixteen groups, which were respectively:
SD rats with body weight of 200-230 g at SPF level were provided by Lanzhou University Laboratory Animal Center. After rats were quarantined in the room (SPF environment) for one week, model rat and rat in sham-operated group were subject to intraperitoneal injection and anesthesia with 0.6% pentobarbital sodium solution, and operation was performed on a super clean bench after anesthesia. Bilateral ligation was conducted on model rat after the common bile duct was separated, and ligation was not conducted on rat in sham-operated group, but only the common bile duct was separated. Administration was started from the next day of the operation.
Administration was started from the first day of the operation, and subcutaneous injection of compounds 3, 6, 7, 10, 17, 20, 37, 38, 39, 40, 44, 46 and Liraglutide with 50 μg/kg was performed every two days; intraperitoneal injection for the Obeticholic Acid administration group with 7.5 mg/kg was performed every day; as for the normal saline group, injection was performed every day. During the administration, changes in vital signs of rats were observed every day.
After the end of two weeks of administration cycle (14 days), the rats were killed to collect materials for subsequent biological determination experiments. The livers were taken out for HE dye, Sirius Red dye and IHC dye. Image-pro plus and Graph pad software were used for statistics.

Row | Substance | Relative expression of α-SMA (α-SMA/β-actin, %) [1] | ALT in the serum (FIG. 6) [2] | BDL-induced hepatic fibrosis and inflammation (HE, Sirius Red, IHC sections) [2] | collagenous fiber deposition in liver (Sirius Red dyed sections, FIGS. 2, 4) [2] | content of hydroxyproline of the liver (FIG. 7) [2] | α-SMA in liver (IHC dyed sections, FIGS. 3, 5) [2]
1 | His-(D-Ser)-Gln-Gly-Thr-Phe-Thr-Ser-Asp-Tyr-Ser-Lys(PEG2-PEG2-γGlu-CO(CH2)16CO2H)-Lys-Leu-Asp-Aib-Arg-Arg-Ala-Gln-Asp-Phe-Val-Gln-Trp-Leu-Met-Asn-Thr-Gly-Gly-Pro-Ser-Ser-Gly-Ala-Pro-Pro-Pro-Ser-NH2 (H[dS]QGTFTSDYSK([PEG2′-PEG2′-γGlu-C18 diacid])KLD[Aib]RRAQDFVQWLMNTGGPSSGAPPPS-NH2) [Compound 20] | 28.39% | significantly inhibit | significantly reduce | significantly inhibit | significantly inhibit | significantly inhibit
2 | His-(D-Ser)-Gln-Gly-Thr-Phe-Thr-Ser-Asp-Tyr-Ser-Lys-Tyr-Leu-Asp-Aib-Lys(PEG2-PEG2-CO(CH2)16CO2H)-Arg-Ala-Gln-Asp-Phe-Val-Gln-Trp-Leu-Met-Asn-Thr-Gly-Gly-Pro-Ser-Ser-Gly-Ala-Pro-Pro-Pro-Ser-NH2 (H[dS]QGTFTSDYSKYLD[Aib]K([PEG2′-PEG2′-C18 diacid])RAQDFVQWLMNTGGPSSGAPPPS-NH2) [Compound 10] | 39.49% | significantly inhibit | significantly reduce | significantly inhibit | significantly inhibit | significantly inhibit
3 | His-(D-Ser)-Gln-Gly-Thr-Phe-Thr-Ser-Asp-Tyr-Ser-Lys-Tyr-Leu-Asp-Aib-Lys(PEG2-PEG2-γGlu-CO(CH2)16CO2H)-Arg-Ala-Gln-Asp-Phe-Val-Gln-Trp-Leu-Met-Asn-Thr-Gly-Gly-Pro-Ser-Ser-Gly-Ala-Pro-Pro-Pro-Ser-NH2 (H[dS]QGTFTSDYSKYLD[Aib]K([PEG2′-PEG2′-γGlu-C18 diacid])RAQDFVQWLMNTGGPSSGAPPPS-NH2) [Compound 7] | 40.52% | significantly inhibit | significantly reduce | significantly inhibit | significantly inhibit | significantly inhibit
4 | His-(D-Ser)-Gln-Gly-Thr-Phe-Thr-Ser-Asp-Tyr-Ser-Lys-Tyr-Leu-Asp-Lys(PEG2-PEG2-γGlu-CO(CH2)14CH3)-Arg-Arg-Ala-Gln-Asp-Phe-Val-Gln-Trp-Leu-Leu-Asn-Thr-Gly-Gly-Pro-Ser-Ser-Gly-Ala-Pro-Pro-Pro-Ser-NH2 (H[dS]QGTFTSDYSKYLDK([PEG2′-PEG2′-γGlu-Palmitoyl])RRAQDFVQWLLNTGGPSSGAPPPS-NH2) [Compound 40] | 37.55% | significantly inhibit | significantly reduce | significantly inhibit | significantly inhibit | significantly inhibit
5 | His-(D-Ser)-Gln-Gly-Thr-Phe-Thr-Ser-Asp-Tyr-Ser-Lys-Tyr-Leu-Asp-Lys(PEG2-PEG2-γGlu-CO(CH2)14CH3)-Arg-Arg-Ala-Gln-Asp-Phe-Val-Gln-Trp-Leu-Met-Asn-Thr-Gly-Gly-Pro-Ser-Ser-Gly-Ala-Pro-Pro-Pro-Ser-NH2 (H[dS]QGTFTSDYSKYLDK([PEG2′-PEG2′-γGlu-Palmitoyl])RRAQDFVQWLMNTGGPSSGAPPPS-NH2) [Compound 6] | 29.19% | significantly inhibit | significantly reduce | significantly inhibit | significantly inhibit | significantly inhibit
6 | His-(D-Ser)-Gln-Gly-Thr-Phe-Thr-Ser-Asp-Tyr-Ser-Lys-Tyr-Leu-Asp-Lys(PEG2-PEG2-γGlu-CO(CH2)14CH3)-Arg-Arg-Ala-Gln-Asp-Phe-Val-Gln-Trp-Leu-Nle-Asn-Thr-Gly-Gly-Pro-Ser-Ser-Gly-Ala-Pro-Pro-Pro-Ser-NH2 (H[dS]QGTFTSDYSKYLDK([PEG2′-PEG2′-γGlu-Palmitoyl])RRAQDFVQWL[Nle]NTGGPSSGAPPPS-NH2) [Compound 37] | 29.95% | significantly inhibit | significantly reduce | significantly inhibit | significantly inhibit | significantly inhibit
7 | His-(D-Ser)-Gln-Gly-Thr-Phe-Thr-Ser-Asp-Tyr-Ser-Lys-Tyr-Leu-Asp-Lys(PEG2-PEG2-γGlu-CO(CH2)16CO2H)-Arg-Arg-Ala-Gln-Asp-Phe-Val-Gln-Trp-Leu-Leu-Asn-Thr-Gly-Gly-Pro-Ser-Ser-Gly-Ala-Pro-Pro-Pro-Ser-NH2 (H[dS]QGTFTSDYSKYLDK([PEG2′-PEG2′-γGlu-C18 diacid])RRAQDFVQWLLNTGGPSSGAPPPS-NH2) [Compound 39] | 41.68% | significantly inhibit | significantly reduce | significantly inhibit | significantly inhibit | significantly inhibit
8 | His-(D-Ser)-Gln-Gly-Thr-Phe-Thr-Ser-Asp-Tyr-Ser-Lys-Tyr-Leu-Asp-Lys(PEG2-PEG2-γGlu-CO(CH2)16CO2H)-Arg-Arg-Ala-Gln-Asp-Phe-Val-Gln-Trp-Leu-Nle-Asn-Thr-Gly-Gly-Pro-Ser-Ser-Gly-Ala-Pro-Pro-Pro-Ser-NH2 (H[dS]QGTFTSDYSKYLDK([PEG2′-PEG2′-γGlu-C18 diacid])RRAQDFVQWL[Nle]NTGGPSSGAPPPS-NH2) [Compound 38] | 40.55% | significantly inhibit | significantly reduce | significantly inhibit | significantly inhibit | significantly inhibit
9 | His-(D-Ser)-Gln-Gly-Thr-Phe-Thr-Ser-Asp-Tyr-Ser-Lys-Tyr-Leu-Asp-Ser-Lys(PEG2-PEG2-γGlu-CO(CH2)16CO2H)-Ala-Ala-His-Asp-Phe-Val-Glu-Trp-Leu-Leu-Arg-Ala-NH2 (H[dS]QGTFTSDYSKYLDSK([PEG2′-PEG2′-γGlu-C18 diacid])AAHDFVEWLLRA-NH2) [Compound 17] | 35.38% | significantly inhibit | significantly reduce | significantly inhibit | significantly inhibit | significantly inhibit
